≈ marks a conversion by molar mass, not a printed value. Read-outs that look alike come from different tables or passages of the source. Starred links: 1 amine or outer side, 2 acyl side, 3 side chain; linkers in the order of their positions; H or OH if unused. Positions of bridges follow the written chain, without caps; N, C: chain ends. Non-standard residues stand in square brackets, D forms with d. Residues, ends and D or L forms follow the SMILES beside them. *: point of attachment. X3 = CN(CCCCC(=O)N[C@@H](CS[*:2])C(=O)[*:1])[*:3]; Trp(7-Me) = Cc1cccc2c(C[C@H](N)C(=O)O)c[nH]c12; X1 = O=C(CCCCN[*:3])N[C@@H](CS[*:2])C(=O)[*:1]; Trp(1-Me) = Cn1cc(C[C@H](N)C(=O)O)c2ccccc21; 2Nal = N[C@@H](Cc1ccc2ccccc2c1)C(=O)O; 3Pal = N[C@@H](Cc1cccnc1)C(=O)O; Suc = O=C(CCC(=O)[*:2])[*:1]; Thp = NC1(C(=O)O)CCOCC1; Me2NCH2CH2 = CN(C)CC*; Aib = CC(C)(N)C(=O)O; Ava = NCCCCC(=O)O; Sar = CNCC(=O)O
Experiments:
Pancreatin = test: Protease stability in simulated intestinal fluid (Pancreatin-SIF, FaSSIF); type: in vitro ADME; settings: 1 μM peptide, 37° C.; for remaining at 1 h, 1 µM: 60 min, read-out: FaSSIF 60 (min), remaining percent of peptide; for remaining at 2 h, 1 µM: 120 min, read-out: FaSSIF 120 (min), remaining percent of peptide; for remaining at 4 h, 1 µM: 240 min, read-out: FaSSIF 240 (min), remaining percent of peptide
Procedure, shortened: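 Peptide (1 μM final) was incubated at 37° C in simulated intestinal fluid containing pancreatin (1 mg per 10 mL SIF concentrate). Samples were quenched with ethanol/0.1% HCOOH at 0, 60, 120 and 240 min and analysed by LC-MS/MS. Percent remaining is the peak area relative to time 0 (100%).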

Pepsin = tested on: T1, Pepsin; test: Protease stability in simulated gastric fluid (Pepsin-SGF, FaSSGF); type: in vitro ADME; settings: simulated gastric fluid with pepsin (Pepsin-SGF), 60 min, 1 μM peptide, 37° C., read-out: FaSSGF 60 (min), remaining percent of peptide
T1 construct: purchased Merck Millipore
Procedure, shortened: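 Peptides at 1 μM final in pepsin-containing SGF at 37° C, sampled at 0, 60, 120 and 240 min, quenched with ethanol (0.1% HCOOH). Analysed by LCMS/MS; percent remaining from peak area relative to time 0 (set to 100%).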

[1] = tested on: IL-23 induced STAT3 signaling in HEK-Blue™ IL-23 cells; test: IL-23 induced STAT3 signaling in HEK-Blue IL-23 cells (SEAP reporter); type: cell-based; settings: human IL23 0.25 ng/ml, read-out: pSTAT3
Procedure, shortened: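 HEK-Blue IL-23 cells (10,000/well) pre-incubated 60 min at 37 °C with serially diluted peptides, then stimulated overnight with human IL-23 (0.25 ng/ml final). STAT3-driven SEAP in supernatant detected with QUANTI-Blue after 45 min at RT (OD 620-655 nm); dose-response curves fitted.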

[2] = Solubility testing of peptides at different pH; type: physicochemical; settings: target concentration 1 mg/ml, 2 hours agitation
Procedure, shortened: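 Solid obtained by drying down DMSO stock was taken up at 1 mg/mL in 50 mM HCl pH 1.2 or 50 mM phosphate pH 6.5, 7.4 or 9.0, agitated gently for 2 h, then filtered (0.45 μm). Solubility by UPLC-UV peak area against a DMSO reference standard curve, corrected for extinction coefficients.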

[3] = molecular target: T2, human interleukin-23 receptor (recombinant human IL-23R-Fc chimera) (Homo sapiens, UniProt Q5VWK5); test: Human ELISA IL23/IL23R (assay for specific human IL23R antagonists); type: binding; settings: Table 10; read-out: Human ELISA IL23/IL23R IC50
T2 construct: Fc (IgG Fc fusion)
Procedure, shortened: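 Plates coated overnight at 4 °C with human IL23 ([…]), blocked, then serially diluted peptides added with recombinant human IL-23R-Fc (0.1 μg/ml final) for 60 min at room temperature. Bound receptor detected with anti-human IgG1-HRP and fluorogenic peroxidase substrate.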

[4] = 50 mM HCl buffer, 50 mM HCl pH 1.2, read-out: Solubility Buffer pH 1.2
[5] = 50 mM phosphate buffer pH 6.5, read-out: Solubility Buffer pH 6.5
[6] = 50 mM phosphate buffer pH 7.4, read-out: Solubility Buffer pH 7.4
[7] = 50 mM phosphate buffer pH 9.0, read-out: Solubility Buffer pH 9.0

SMILES | remaining at 1 h, 1 µM (Pancreatin) | remaining at 2 h, 1 µM (Pancreatin) | remaining at 4 h, 1 µM (Pancreatin) | remaining at 1 h, 1 µM (Pepsin) | IC50 [1] | solubility at 2 h [2, 4] | solubility at 2 h [2, 5] | solubility at 2 h [2, 6] | IC50 [3] | solubility at 2 h [2, 7]
CC(=O)NCCCC[C@@H]1NC(=O)[C@H](Cc2c[nH]c3c(C)cccc23)NC(=O)[C@@H](NC(C)=O)CCCCNC(=O)[C@@H]2CSSC[C@H](NC1=O)C(=O)N[C@@H](Cc1ccc(OCCN(C)C)cc1)C(=O)N[C@@H](Cc1ccc3ccccc3c1)C(=O)NC(C)(C)C(=O)N[C@H](C(=O)N[C@@H](CC(N)=O)C(=O)N[C@@H](Cc1c[nH]cn1)C(N)=O)CCC(=O)N(C)CCCCC(=O)N2 [compound 60] (Ac-K[Trp(7-Me)]K(Ac)CY(Me2NCH2CH2)[2Nal][Aib]ENH-NH2; linker 1-4-8 via X3) | 99% | 91% | 91% | 68% | 0.16 nM | ≥ 1020 µg/mL | ≥ 1000 µg/mL | ≥ 930 µg/mL | 0.21 nM | 
CC(=O)NCCCC[C@@H]1NC(=O)[C@H](Cc2c[nH]c3c(C)cccc23)NC(=O)[C@H]([C@@H](C)O)NC(=O)[C@H](CC(N)=O)NC(=O)[C@@H]2CSSC[C@H](NC1=O)C(=O)N[C@@H](Cc1ccc(OCCN(C)C)cc1)C(=O)N[C@@H](Cc1ccc3ccccc3c1)C(=O)NC1(CCOCC1)C(=O)N[C@H](C(=O)N[C@@H](CO)C(=O)N[C@@H](Cc1cccnc1)C(=O)N(C)CC(N)=O)CCC(=O)NCCCCC(=O)N2 [compound 56] ([Ava]CNT[Trp(7-Me)]K(Ac)CY(Me2NCH2CH2)[2Nal][Thp]ES[3Pal][Sar]-NH2; disulfide 2-7; lactam N-11) | 90% | 76% | 77% | 86% | 0.16 nM | ≥ 1090 µg/mL | ≥ 920 µg/mL | ≥ 1030 µg/mL | 0.57 nM | 
CC(=O)NCCCC[C@@H]1NC(=O)[C@H](Cc2c[nH]c3c(C)cccc23)NC(=O)[C@H]([C@@H](C)O)NC(=O)[C@H](CC(N)=O)NC(=O)[C@@H]2CSSC[C@H](NC1=O)C(=O)N[C@@H](Cc1ccc(OCCN(C)C)cc1)C(=O)N[C@@H](Cc1ccc3ccccc3c1)C(=O)NC1(CCOCC1)C(=O)N[C@H](C(=O)N[C@@H](CC(N)=O)C(=O)N[C@@H](Cc1c[nH]cn1)C(N)=O)CCC(=O)NCCCCC(=O)N2 [compound 21] ([Ava]CNT[Trp(7-Me)]K(Ac)CY(Me2NCH2CH2)[2Nal][Thp]ENH-NH2; disulfide 2-7; lactam N-11) | 89% | 77% | 75% | 91% | 2.67 nM | ≥ 1080 µg/mL | ≥ 1010 µg/mL | ≥ 970 µg/mL | 0.31 nM | 230 µg/mL (≈ 126 µM)
C[C@@H](O)[C@@H]1NC(=O)[C@H](CC(N)=O)NC(=O)[C@@H]2CSSC[C@H](NC(=O)[C@H](CCC(N)=O)NC(=O)[C@H](Cc3c[nH]c4ccccc34)NC1=O)C(=O)N[C@@H](Cc1ccc(OCCN)cc1)C(=O)N[C@H](Cc1ccc3ccccc3c1)C(=O)NC(C)(C)C(=O)N[C@H](C(=O)N[C@@H](CC(N)=O)C(=O)N[C@@H](CC(N)=O)C(N)=O)CCC(=O)NCCCCC(=O)N2 [compound 5] | 94% | 86% | 64% | 82% | 9.66 nM | ≥ 1110 µg/mL | ≥ 1230 µg/mL | ≥ 1230 µg/mL | 0.61 nM | 
COc1ccc(C[C@@H]2NC(=O)[C@@H]3CSSC[C@H](NC(=O)CCCCNC(=O)CC[C@@H](C(=O)N[C@@H](CC(N)=O)C(=O)N[C@@H](CC(N)=O)C(N)=O)NC(=O)C(C)(C)NC(=O)[C@H](Cc4ccc5ccccc5c4)NC2=O)C(=O)N[C@@H](CC(N)=O)C(=O)N[C@@H]([C@@H](C)O)C(=O)N[C@@H](Cc2c[nH]c4ccccc24)C(=O)N[C@@H](CCC(N)=O)C(=O)N3)cc1 [compound 1] ([Ava]CNTWQCY(Me)[2Nal][Aib]ENN-NH2; disulfide 2-7; lactam N-11) | 72% | 74% | 58% | 2% | 18.5 nM | 100 µg/mL (≈ 60.6 µM) | < 50 µg/mL | < 50 µg/mL | 0.72 nM | 
C[C@@H](O)[C@@H]1NC(=O)[C@H](CC(N)=O)NC(=O)[C@@H]2CSSC[C@H](NC(=O)[C@H](CCC(N)=O)NC(=O)[C@H](Cc3c[nH]c4ccccc34)NC1=O)C(=O)N[C@@H](Cc1ccc(OCCN(C)C)cc1)C(=O)N[C@H](Cc1ccc3ccccc3c1)C(=O)NC(C)(C)C(=O)N[C@H](C(=O)N[C@@H](CC(N)=O)C(=O)N[C@@H](CC(N)=O)C(N)=O)CCC(=O)NCCCCC(=O)N2 [compound 8] | 97% | 91% | 82% | 92% | 5.54 nM | ≥ 990 µg/mL | ≥ 1000 µg/mL | ≥ 1020 µg/mL | 0.24 nM | ≥ 1040 µg/mL
CC[C@H](C)[C@H](NC(=O)[C@H](Cc1cccnc1)NC(=O)[C@H](CC(N)=O)NC(=O)[C@@H]1CCC(=O)NCCCCC(=O)N[C@H]2CSSC[C@H](NC(=O)[C@H](CCCCNC(C)=O)NC(=O)[C@H](Cc3c[nH]c4ccccc34)NC(=O)[C@H]([C@@H](C)O)NC(=O)[C@H](CC(N)=O)NC2=O)C(=O)N[C@@H](Cc2ccc(OCCN(C)C)cc2)C(=O)N[C@@H](Cc2ccc3ccccc3c2)C(=O)NC(C)(C)C(=O)N1)C(N)=O [compound 37] ([Ava]CNTWK(Ac)CY(Me2NCH2CH2)[2Nal][Aib]EN[3Pal]I-NH2; disulfide 2-7; lactam N-11) | 80% | 79% | 63% | 77% | 2 nM | ≥ 890 µg/mL | ≥ 940 µg/mL | 590 µg/mL (≈ 311 µM) | 0.38 nM | 90 µg/mL (≈ 47.5 µM)
CC(=O)NCCCC[C@@H]1NC(=O)[C@H](Cc2c[nH]c3c(C)cccc23)NC(=O)[C@H]([C@@H](C)O)NC(=O)[C@H](CC(N)=O)NC(=O)[C@@H]2CSSC[C@H](NC1=O)C(=O)N[C@@H](Cc1ccc(OCCN(C)C)cc1)C(=O)N[C@@H](Cc1ccc3ccccc3c1)C(=O)NC1(CCOCC1)C(=O)N[C@H](C(=O)N[C@@H](CC(N)=O)C(=O)N[C@@H](Cc1cccnc1)C(=O)N(C)CC(N)=O)CCCCNC(=O)CCC(=O)N2 [compound 102] (CNT[Trp(7-Me)]K(Ac)CY(Me2NCH2CH2)[2Nal][Thp]KN[3Pal][Sar]-NH2; disulfide 1-6; linker N-10 via Suc) | 82% | 77% | 74% | 97% | 0.09 nM |  |  |  | 0.3 nM | 
CC(=O)NCCCC[C@@H]1NC(=O)[C@H](Cc2cn(C)c3ccccc23)NC(=O)[C@@H](NC(C)=O)CCCCNC(=O)[C@@H]2CSSC[C@H](NC1=O)C(=O)N[C@@H](Cc1ccc(OCCN(C)C)cc1)C(=O)N[C@@H](Cc1ccc3ccccc3c1)C(=O)NC1(CCOCC1)C(=O)N[C@H](C(=O)N[C@@H](CC(N)=O)C(=O)N[C@@H](Cc1cccnc1)C(=O)N(C)CC(N)=O)CCC(=O)NCCCCC(=O)N2 [compound 126] (Ac-K[Trp(1-Me)]K(Ac)CY(Me2NCH2CH2)[2Nal][Thp]EN[3Pal][Sar]-NH2; linker 1-4-8 via X1) | 90% | 87% | 83% | 80% | 0.11 nM |  |  |  | 0.56 nM | 
